# Results: publication PMC5218480 (PLoS ONE, 2017)
# Read-outs that look alike come from different tables or passages of the source.
# Experiments:
# [1] = test system: MV-4-11, Kasumi-1 and HL-60 cell lines; experiment: Histone acetylation by immunoblotting; type: cell-based, human; conditions: 24 hours, increasing doses
# Text: The EpiQuick Total Histone Extraction kit (Epigentek) was used to isolate histones. Histone lysates were size separated on Bolt 10% Bis-Tris gradient gels (Life Technologies), transferred to polyvinylidene difluoride membranes, blocked in 5% BSA, and detected using standard western blotting techniques.
# HDAC2 = target: T1, HDAC2 (Homo sapiens, UniProt Q92769); experiment: HDAC enzyme assay, in vitro biochemical
# T1 construct: purchased BPS Biosciences
# Description: (§1) In vitro biochemical assays were performed as described previously. Specifically, compounds were dissolved and diluted in assay buffer (50 mM HEPES, pH 7.4, 100 mM KCl, 0.001% Tween-20, 0.05% BSA, and 20 μM Tris (2-carboxyethyl) phosphine) to 6-fold the final concentration. […] The amount of substrate (acetyl-lysine tripeptide) used for each enzyme was equal to the Michaelis constant (Km), as determined by a titration curve. Substrate was diluted in assay buffer to 6-fold of the final concentration with 0.3 μM sequencing grade trypsin (Sigma-Aldrich). The substrate/trypsin mix was added to the enzyme/compound mix and the plate was shaken for 5 seconds and then placed into a SpectraMax M5 microtiter (Molecular Devices) plate reader. The enzymatic reaction was monitored over 30 minutes for release of […] after deacetylation of the lysine side chain in the peptide substrate, and the linear rate of the reaction was calculated.
# HDAC1 = target: T2, HDAC1 (Homo sapiens, UniProt Q13547); experiment: HDAC enzyme assay, in vitro biochemical
# T2 construct: purchased BPS Biosciences
# Description: as §1
# HDAC3 = target: T3, HDAC3 (Homo sapiens, UniProt O15379); experiment: HDAC enzyme assay, in vitro biochemical; conditions: pre-incubated 24 hours at 4°C; n = 3; read-out: IC50 against HDAC3
# T3 construct: purchased BPS Biosciences
# Description: as §1
# [2] = test system: live leukemic cells of fresh bone marrow samples from AML patients; conditions: read-out: mean IC50, proliferation of primary leukemic cells; 96 hours, n = 38 patient samples
# MV-4-11 cells = experiment: Cell viability assay (CellTiter-Glo), single agent and combination; conditions: read-out: IC50 cell viability MV-4-11; 72 hours
# Description: (§3) MV-4-11, Kasumi-1, and HL-60 AML cell lines were all obtained from ATCC. MOLM-13 and NB-4 cell lines were obtained from DSMZ. […] The identity of each cell line was validated and documented by the suppliers. All experiments were performed with cells maintained at low passage numbers.
# (§4) Compounds and/or solvent dimethyl sulfoxide (DMSO) were added at the same time using an HP D300 digital dispenser (Hewlett Packard) in triplicate or quadruplicate and incubated for 72 hours at 37°C. Viability was measured by adding 25 μL CellTiter-Glo (Promega), incubating for 10 minutes, and measuring luminescence on a SpectraMax (Molecular Devices). […] CI < 1 indicates synergism, CI = 1 indicates additivity, and CI > 1 indicates antagonism.
# MV-4-11 and HL-60 cells [3] = experiment: Flow cytometry, apoptosis (Annexin V); type: cell-based, human; conditions: single agent, 96 hours
# Description: (§2) All compounds and/or solvent DMSO were added concurrently at the indicated doses. Flow cytometry was performed to measure surface level of CD11b, cell cycle distribution, and induction of apoptosis. CD11b and apoptosis were analyzed on a FC500 flow cytometer ([…]) and cell cycle profiled on an Attune NxT (Life Technologies).
# Annexin V-positive populations were quantified.
# MV-4-11 and HL-60 cells [4] = experiment: Flow cytometry, cell cycle (EdU, S phase); type: cell-based, human; conditions: single agent, 72 hours
# Description: as §2
# EdU labeled cells were then mixed with FxCycle Far Red Stain (Life Technologies) and 100 μg RNase A cocktail (Life technologies) for 30 minutes before flow cytometry analysis. Edu positive populations representing S phase cells were quantified.
# Kasumi-1 cells = experiment: Cell viability assay (CellTiter-Glo); conditions: read-out: IC50 cell viability Kasumi-1; 72 hours
# Description: as §3, §4
# MV-4-11 and HL-60 cells [5] = experiment: Flow cytometry, surface level of CD11b (differentiation); type: cell-based, human; conditions: single agent, 72 hours
# Description: as §2
# The frequency of CD11b positive cells out of total viable cells identified by forward and side scatter profile was quantified.
# MOLM-13 cells = experiment: Cell viability assay (CellTiter-Glo), single agent and combination; conditions: read-out: IC50 cell viability MOLM-13; 72 hours
# Description: as §3, §4
# HL-60 cells = experiment: Cell viability assay (CellTiter-Glo); conditions: read-out: IC50 cell viability HL-60; 72 hours
# Description: as §3, §4
# NB-4 cells = experiment: Cell viability assay (CellTiter-Glo); conditions: read-out: IC50 cell viability NB-4; 72 hours
# Description: as §3
# Compounds and/or solvent dimethyl sulfoxide (DMSO) were added at the same time using an HP D300 digital dispenser (Hewlett Packard) in triplicate or quadruplicate and incubated for 72 hours at 37°C. Viability was measured by adding 25 μL CellTiter-Glo (Promega), incubating for 10 minutes, and measuring luminescence on a SpectraMax (Molecular Devices).
# [6] = test system: five human AML cell lines (MV-4-11, Kasumi-1, HL-60, MOLM-13, NB-4); experiment: Cell viability assay, summary over five human AML cell lines; conditions: 72 hours
# Description: as §3, §4
# MV-4-11 and HL-60 cells [7] = experiment: Quantitative real time PCR (qPCR) of CDKN1A, CDKN1C, GATA2, HES1; type: cell-based, human; conditions: MV-4-11 and HL-60, 48 hours
# Description: RNA isolations were performed on a Qiacube (Qiagen) using the RNeasy Micro Kit (Qiagen) according to manufacturer’s protocol. RNA was converted to cDNA using the High Capacity RNA-to-cDNA Kit (Life Technologies) and qPCR performed using the Taqman Gene Expression Max Mix according to manufacturer’s protocol (Applied Bioscience). The following ThermoFisher taqman probes were used: GATA2 (Hs01060665_g1), GAPDH (Hs0275899_g1), ACTB (Hs00231119_m1), CDKN1A (Hs00355782_m1), CDKN1C (Hs00175938_m1), HES1 (Hs00172878_m1).
# T2 sequence (Q13547 whole entry): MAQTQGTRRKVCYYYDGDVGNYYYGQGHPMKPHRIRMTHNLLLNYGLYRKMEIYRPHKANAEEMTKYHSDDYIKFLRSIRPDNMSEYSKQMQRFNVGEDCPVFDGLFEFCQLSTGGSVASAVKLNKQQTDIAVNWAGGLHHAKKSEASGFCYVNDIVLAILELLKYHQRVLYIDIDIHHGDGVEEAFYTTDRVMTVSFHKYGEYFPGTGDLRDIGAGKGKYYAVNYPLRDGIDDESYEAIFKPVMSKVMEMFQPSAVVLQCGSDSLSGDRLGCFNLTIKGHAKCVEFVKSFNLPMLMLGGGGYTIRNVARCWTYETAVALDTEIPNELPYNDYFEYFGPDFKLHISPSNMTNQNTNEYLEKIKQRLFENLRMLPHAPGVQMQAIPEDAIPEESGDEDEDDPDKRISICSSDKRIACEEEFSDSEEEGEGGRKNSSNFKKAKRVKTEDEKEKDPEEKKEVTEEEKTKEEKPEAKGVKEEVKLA
# T1 sequence (Q92769 whole entry): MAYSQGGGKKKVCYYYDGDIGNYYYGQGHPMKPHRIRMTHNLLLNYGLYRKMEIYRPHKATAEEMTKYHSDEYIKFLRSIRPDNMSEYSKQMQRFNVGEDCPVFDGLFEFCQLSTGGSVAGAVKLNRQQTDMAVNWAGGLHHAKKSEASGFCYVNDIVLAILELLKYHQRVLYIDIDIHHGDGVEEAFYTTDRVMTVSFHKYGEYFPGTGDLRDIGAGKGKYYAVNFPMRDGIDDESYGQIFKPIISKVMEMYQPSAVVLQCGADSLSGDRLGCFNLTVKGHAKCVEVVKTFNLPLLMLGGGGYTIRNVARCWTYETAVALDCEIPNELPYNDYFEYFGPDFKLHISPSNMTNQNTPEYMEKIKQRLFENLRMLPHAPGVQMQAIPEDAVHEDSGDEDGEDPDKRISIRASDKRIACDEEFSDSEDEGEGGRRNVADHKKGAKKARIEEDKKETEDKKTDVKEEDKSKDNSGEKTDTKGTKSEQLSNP
# T3 sequence (O15379 whole entry): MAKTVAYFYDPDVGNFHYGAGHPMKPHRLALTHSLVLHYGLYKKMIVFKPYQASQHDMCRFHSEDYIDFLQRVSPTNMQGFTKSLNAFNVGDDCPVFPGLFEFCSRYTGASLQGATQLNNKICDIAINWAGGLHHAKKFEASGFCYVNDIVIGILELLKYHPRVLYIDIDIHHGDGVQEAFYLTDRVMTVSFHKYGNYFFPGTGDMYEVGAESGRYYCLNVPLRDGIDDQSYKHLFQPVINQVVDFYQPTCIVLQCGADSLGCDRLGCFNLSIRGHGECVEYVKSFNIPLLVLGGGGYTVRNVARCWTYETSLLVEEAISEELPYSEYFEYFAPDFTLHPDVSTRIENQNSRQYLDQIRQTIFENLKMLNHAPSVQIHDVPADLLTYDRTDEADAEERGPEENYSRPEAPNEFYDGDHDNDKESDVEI
# T3 sequence (Q9Y618 395-489 partner limits assumed): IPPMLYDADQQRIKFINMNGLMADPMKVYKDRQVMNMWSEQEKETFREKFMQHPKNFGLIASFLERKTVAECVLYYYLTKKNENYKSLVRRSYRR
smiles,measurement,setting,value
Nc1ccc(-c2cccs2)cc1NC(=O)c1ccc2nc(N3CCNCC3)ccc2c1 [ACY-957],acetylation on histone H2B lysine 5 (H2BK5ac) and histone H3 lysine 56 (H3K56ac),[1],dose-dependent accumulation
same,selectivity for HDAC2 over HDAC3,HDAC2,approximately 50 fold
same,IC50,"HDAC2; pre-incubated 24 hours at 4°C, n = 3, read-out: IC50 against HDAC2",26 nM
same,selectivity for HDAC1 over HDAC3,HDAC1,more than 150 fold
same,IC50,"HDAC1; pre-incubated 24 hours at 4°C, n = 3, read-out: IC50 against HDAC1",7.2 nM
same,IC50,HDAC3,1160 nM
same,IC50,[2],1100 nM
same,IC50,MV-4-11 cells,800 nM
same,"apoptosis, staining for annexin V",MV-4-11 and HL-60 cells [3],increased staining for annexin V
same,cells in S phase,MV-4-11 and HL-60 cells [4],dose-dependent reduction of cells in S phase
same,IC50,Kasumi-1 cells,1600 nM
same,"differentiation, surface expression of CD11b",MV-4-11 and HL-60 cells [5],dose-dependent induction of differentiation
same,IC50,MOLM-13 cells,1600 nM
same,IC50,HL-60 cells,2200 nM
same,IC50,NB-4 cells,1600 nM
same,IC50,"[6]; read-out: IC50 values cell viability, range, five human AML cell lines, both compounds",800 to 3300 nM
same,IC50,"[6]; read-out: average IC50 value, viability of AML cells, average of five AML cell lines",1500 nM
same,"expression of CDKN1A, CDKN1C, GATA2 and HES1 (qPCR)",MV-4-11 and HL-60 cells [7],up-regulated
